The values that follow come from patent US20190351012A1, “TARGETING OF INTERFERON-STIMULATED GENE EXPRESSION TO TREAT INTERFERONOPATHIES” (New York University, priority 2018, published 2019).

The test system of the test is p21^Cip1/wAF1 expression in HeLa cells. As to the kind of experiment: p21 Cip1/WAF1 expression in HeLa cells, real-time RT-PCR (control for HDAC inhibition). As to conditions: IFN-α 6 h, FIG. 1B. The format is cell-based, human. As for the experimental part:
FIG. 1. Class I HDAC mediates ISG expression. (A, B) HeLa cells were treated with IFN-α for 6 h in the absence or presence of increasing concentrations of Romidepsin or TSA, as indicated. RNA was quantified by real-time RT-PCR for ISG54 and p21^wAF1/Cip1 expression, normalized to GAPDH, and represented as fold induction over untreated cells. (C) HeLa cells were treated with IFN-α for 6 h in the absence or presence of increasing concentrations of romidepsin, RGFP966, or RGFP233, as indicated. RNA was quantified by real-time RT-PCR for IRF9 expression, normalized to GAPDH and represented as fold induction over untreated cells. HEK293 cells were transfected with siRNA against HDAC1, HDAC2, or E2F4 separately (D) or with a combination of HDAC1 and HDAC2 targeting oligonucleotides (E) and cells were stimulated with IFN-α for 6 h (α) in the presence (αT) or absence of TSA, as indicated. Whole cell extracts were analyzed for expression of the indicated proteins by western blotting (left panels). ISG54 expression was quantified by real-time RT-PCR, and represented as fold induction over untreated cells (right panels). (F) HEK293T cells were transfected with pcDNA3 (Ctl), HDAC1, or HDAC2 expression constructs, and ISG54 expression was quantified after stimulation with IFN-α for 10 h. […] Nuclear extracts were analyzed for expression of Sin3B by western blotting (middle panels). […]

In the case of `CC(/C=C/C(=O)NO)=C\[C@@H](C)C(=O)c1ccc(N(C)C)cc1` [TSA, Trichostatin A], the “p21 Cip1/WAF1 expression” value is listed as “led to p21^Cip1/wAF1 expression”.
